Experiment [1] has as its target T1, Acetylcholinesterase (Homo sapiens, UniProt P22303).
Description: Inhibition of human serum recombinant AChE using acetylthiocholine iodide as substrate preincubated for 20 mins by Ellman's method
Experiment [2] has as its target Cholinesterase (Homo sapiens, UniProt P06276).
Description: Inhibition of human serum recombinant BChE using butyrylthiocholine iodide as substrate preincubated for 20 mins by Ellman's method
Experiment [3] deals with T2, Beta-secretase 1 (Homo sapiens, UniProt P56817).
Description: Inhibition of BACE1 expressed in baculovirus assessed as inhibition of amyloid beta-42 production after 60 mins by spectrofluorometric assay
The target in experiment [4] is T2, Beta-secretase 1. The experiment is described as follows: Inhibition of BACE1 expressed in baculovirus assessed as inhibition of amyloid beta-42 production at 10 uM after 60 mins by spectrofluorometric assay.
Experiment [5] addresses T1, Acetylcholinesterase. The experiment is described as follows: Mixed-type inhibition of human AChE assessed as hydrolysis of acetylthiocholine by Lineweaver-Burk plot analysis.

Molecules are shown by their SMILES.

Sequence of Cholinesterase (P06276 whole entry): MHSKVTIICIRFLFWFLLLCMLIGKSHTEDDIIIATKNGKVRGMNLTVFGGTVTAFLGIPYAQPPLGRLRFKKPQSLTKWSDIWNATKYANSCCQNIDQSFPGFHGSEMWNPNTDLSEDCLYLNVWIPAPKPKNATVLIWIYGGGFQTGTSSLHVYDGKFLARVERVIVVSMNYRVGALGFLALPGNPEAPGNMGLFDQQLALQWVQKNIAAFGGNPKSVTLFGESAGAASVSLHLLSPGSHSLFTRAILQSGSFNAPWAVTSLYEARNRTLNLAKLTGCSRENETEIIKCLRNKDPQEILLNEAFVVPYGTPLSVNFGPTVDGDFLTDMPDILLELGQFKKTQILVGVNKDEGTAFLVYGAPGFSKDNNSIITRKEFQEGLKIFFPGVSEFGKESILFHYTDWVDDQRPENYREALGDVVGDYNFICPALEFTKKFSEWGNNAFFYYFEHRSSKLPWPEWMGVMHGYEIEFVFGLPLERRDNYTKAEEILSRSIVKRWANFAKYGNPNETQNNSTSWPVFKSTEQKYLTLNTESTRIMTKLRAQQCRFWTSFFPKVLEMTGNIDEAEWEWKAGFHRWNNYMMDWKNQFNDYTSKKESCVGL
T1 sequence (P22303 whole entry): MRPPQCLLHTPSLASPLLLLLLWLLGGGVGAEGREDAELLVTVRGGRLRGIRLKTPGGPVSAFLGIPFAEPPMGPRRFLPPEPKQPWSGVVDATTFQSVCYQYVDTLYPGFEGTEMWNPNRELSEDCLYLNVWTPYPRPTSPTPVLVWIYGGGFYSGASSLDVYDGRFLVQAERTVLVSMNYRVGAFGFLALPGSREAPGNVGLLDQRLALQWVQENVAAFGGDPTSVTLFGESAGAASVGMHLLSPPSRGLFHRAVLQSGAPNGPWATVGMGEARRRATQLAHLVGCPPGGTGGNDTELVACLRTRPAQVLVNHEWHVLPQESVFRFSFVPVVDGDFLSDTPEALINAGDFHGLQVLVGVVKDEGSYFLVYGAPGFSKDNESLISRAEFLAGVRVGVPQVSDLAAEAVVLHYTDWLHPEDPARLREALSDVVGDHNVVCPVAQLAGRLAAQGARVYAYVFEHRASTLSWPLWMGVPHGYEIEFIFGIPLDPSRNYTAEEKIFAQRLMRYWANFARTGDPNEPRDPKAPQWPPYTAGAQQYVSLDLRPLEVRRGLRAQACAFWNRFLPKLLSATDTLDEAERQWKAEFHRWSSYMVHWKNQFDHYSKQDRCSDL
T2 sequence (P56817 whole entry): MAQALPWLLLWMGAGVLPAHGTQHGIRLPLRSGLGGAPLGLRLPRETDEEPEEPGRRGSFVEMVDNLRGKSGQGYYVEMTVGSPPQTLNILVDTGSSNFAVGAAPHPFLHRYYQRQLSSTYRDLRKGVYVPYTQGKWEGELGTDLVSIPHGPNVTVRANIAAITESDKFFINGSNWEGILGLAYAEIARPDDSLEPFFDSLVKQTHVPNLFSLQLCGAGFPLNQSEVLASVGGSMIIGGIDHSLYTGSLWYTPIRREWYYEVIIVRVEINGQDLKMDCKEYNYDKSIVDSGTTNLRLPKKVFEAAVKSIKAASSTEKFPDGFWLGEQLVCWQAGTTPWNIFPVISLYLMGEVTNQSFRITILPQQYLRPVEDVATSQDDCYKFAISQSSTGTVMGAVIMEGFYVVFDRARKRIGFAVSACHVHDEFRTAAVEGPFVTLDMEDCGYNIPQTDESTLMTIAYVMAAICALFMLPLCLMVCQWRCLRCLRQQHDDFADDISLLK

On to `O=c1c2ccc(OCCCCCCCNc3c4c(nc5ccccc35)CCCC4)cc2oc2ncccc12`, for which the values for the IC50 in experiment [1] and in experiment [2] were 283 nM and 101 nM, respectively.

For the compound `Clc1ccc2c(NCCCCCCCOc3cccc(-c4cc5ccccc5o4)c3)c3c(nc2c1)CCCC3`, the 50% inhibitory concentration (IC50) (as a rule, the midpoint of a concentration-inhibition curve) in experiment [1] came to 258 nM; in experiment [2], 41.4 nM.

Consider `Clc1ccc2c(NCCCCCCCNc3c4c(nc5cc(Cl)ccc35)-c3ccccc3C4)c3c(nc2c1)CCCC3`, for which the values for the IC50 in experiment [1] and in experiment [2] were 12.1 nM and 1660 nM, respectively.

Take `Clc1ccc2c(NCCCCCCCNc3c4c(nc5ccccc35)-c3ccccc3C4)c3c(nc2c1)CCCC3`: the IC50 in experiment [1] came out at 1.05 nM; in experiment [2], 63.7 nM; in experiment [3], 1000 nM. The inhibition (commonly the drop in the measured response relative to a control, in per cent) in experiment [4] was determined as 27%. The Ki (as a rule, a measure of affinity in units of concentration, obtained from inhibition or displacement) in experiment [5] came to 1.01 nM.

Regarding `c1ccc2c(NCCCCCCCCN3CCOCC3)c3c(nc2c1)CCCC3`, the values for the IC50 in experiment [1] and in experiment [2] were 16.5 nM and 42.8 nM, respectively.

Regarding `c1ccc2c(c1)Cc1c-2nc2ccccc2c1NCCCCCCCNc1c2c(nc3ccccc13)-c1ccccc1C2`, the concentration for half-maximal inhibition (IC50) in experiment [1] was found to be 455 nM; in experiment [2], 28.6 nM; in experiment [3], 400 nM. Moreover, the inhibition in experiment [4] was determined as 27%.

For `c1ccc2c(c1)Cc1c-2nc2ccccc2c1NCCCCCCCNc1c2c(nc3ccccc13)CCCC2`, the IC50 was determined as 13.9 nM in experiment [1] and 24.8 nM in experiment [2]. For the same compound, in experiment [4], the inhibition was found to be 27%.

As to `c1ccc2c(NCCCCCCCCCN3CCOCC3)c3c(nc2c1)CCCC3`, the IC50 in experiment [1] is 34 nM; in experiment [2], 38.1 nM.

As for `c1ccc2c(NCCCCCCCCCCN3CCOCC3)c3c(nc2c1)CCCC3`, the IC50 turned out to be 28.4 nM in experiment [1] and 14.7 nM in experiment [2].

Regarding `c1ccc2c(NCCCCCCCN3CCOCC3)c3c(nc2c1)CCCC3`, the IC50 worked out at 44.5 nM in experiment [1] and 90.5 nM in experiment [2].

For `c1ccc2c(NCCCCCCN3CCOCC3)c3c(nc2c1)CCCC3`, the IC50 in experiment [1] stood at 68.9 nM; in experiment [2], 101 nM.

With `Clc1ccc2c(NCCCCCCCOc3ccc(-c4cc5ccccc5o4)cc3)c3c(nc2c1)CCCC3`, the IC50 in experiment [1] came to 310 nM; in experiment [2], 7280 nM.
